How the values were obtained:
[1] = tested on: freshly isolated human monocytes; experiment: Dose- and time-dependence of CdA cytotoxicity toward monocytes; format: cell-based; conditions: 50 nM CdA (FIG. 3)
Procedure: FIG. 3 is a graph of the dose- and time-dependence of 2-chlorodeoxyadenosine (CdA) cytotoxicity toward human monocytes in vitro.
Freshly isolated human monocytes were cultured at a concentration of 10^5 cells/well in 96-well flat-bottom tissue culture plates. The cells were incubated in complete medium (Example 2) for about 12 hours following initial plating. The cells were then treated by the addition of various concentrations of CdA to form monocyte-containing compositions specific wells and the plates were incubated, as discussed previously.
The percentage of viable cells that were present in wells containing the treated monocytes was determined daily for six days.

[2] = cited from earlier work
[3] = tested on: circulating peripheral blood monocytes, lymphocytes, neutrophils and platelets; experiment: Cytotoxicity of CdA in vivo: blood cell counts in cutaneous T-cell lymphoma patients; design: species or system human
Procedure: FIG. 1 is a graph showing the results of a study of the cytotoxicity of 2-chlorodeoxyadenosine (CdA) toward three cell types in the peripheral blood of eight cutaneous T-cell lymphoma patients. A continuous intravenous infusion of CdA (0.1 mg/ml in isotonic saline) was administered to each patients at a dosage of 0.1 mg/kg per day, with the patients receiving therapy for seven days. Blood samples were removed daily and cell counts performed, with averaged values being shown. Graph symbols are as follows: open squares indicate the monocytes; plus signs indicate neutrophils (X10^-1); and closed diamonds indicate lymphocytes. The cell concentration (ordinate) is plotted for the day of treatment (abscissa) on which it is measured.
The effect of 2-chlorodeoxyadenosine (CdA) administration upon the level of circulating peripheral blood monocytes, lymphocytes, neutrophils and platelets was determined as follows.
Eight cutaneous T-cell lymphoma patients were administered continuous intravenous infusion of a composition containing 2-chlorodeoxyadenosine at a dosage of 0.1 mg/kg of body weight per day in isotonic saline. Blood samples were obtained daily and the number of viable cells present were enumerated daily for seven days after treatment.

IL-6 = experiment: Spontaneous IL-6 secretion by cultured monocytes, B9.9 hybridoma bioassay; format: cell-based, human
Procedure: FIG. 6 is a graph that illustrates the effects of relatively low doses of CdA used to contact monocytes for a 72 hour time period. Monocyte release of interleukin-6 (IL-6; closed diamonds) and phagocytosis of antibody-coated red blood cells (RBC; closed squares) were examined, as was the viability of the cultured monocytes (open squares). Effects are expressed as a percentage of control values versus the CdA concentration in nanomoles (nM).
The ability of dialyzed culture supernatants to promote proliferation of B9.9 hybridoma cells is a measure of IL-6 activity (Helle et al. (1988) Eur. J. Immunol., 18:1535-1540). Monocytes spontaneously secrete IL-6 upon adherence to plastic during short-term in vitro culture (Guerne et al. (1989) J. Clin. Invest., 83:585-592). Monocytes cultured in autologous plasma 20 percent for three days secreted approximately 18 U per ml of IL-6, as determined by the bioassay standard curve using rIL-6.
The spontaneous secretion, of IL-6 by cultured monocytes was measured by the hybridoma growth factor bioassay as described by Guerne et al. (1989) J. Clin. Invest., 83:585-592. In this assay, the proliferation of a B9.9 murine hybridoma subclone is dependent on the presence of IL-6. […]

[4] = tested on: human fibroblast cell line GM01380; experiment: In vitro cytotoxicity toward human fibroblast cell line (MTT reduction assay); format: cell-based; conditions: 20 nM CdA, five days
Procedure: FIG. 2 is a graph illustrating the dose-response cytotoxicity of 2-chlorodeoxyadenosine (CdA) towards normal human monocytes (open squares), the human fibroblast cell line, GM01380, which is from normal fetal lung (open diamonds) and normal human lymphocytes (closed diamonds), when cultured in vitro. Cells were cultured in vitro as described in Example 2 for five days in the presence of varying concentrations of CdA from 0 to 125 nanomolar (nM), after which time viable cells were determined. The percentage of viable cells remaining after treatment (ordinate) is plotted against the concentration of CdA utilized (abscissa), on a linear scale. The effect of the presence of deoxycytidine (dCyd, 100 μM) on CdA toxicity toward monocytes (closed squares) is also illustrated. […]
Toxicity towards the monocytes and fibroblasts was determined by a modification of the MTT reduction assay described in Mosmann (1983) J. Immunol. […]
Viable cell numbers were determined using a Dynatech microplate spectrophotometer, measuring absorbance at a wavelength of 570 nanometers (nm), using a reference wavelength of 630 nm. The assay could detect as few as 2000 unactivated monocytes, and the absorbance of MTT formazan at 570 nm was linear with respect to the number of monocytes over a range of about 2.5-20×10^3 cells.

Nc1nc(Cl)nc2c1ncn2[C@H]1C[C@H](O)[C@@H](CO)O1 [CdA, 2-chloro-9,1'-beta-D-2'-deoxyribosyladenine]
cell viability [1]: significant decrease in cell viability within two days
plasma level at which dose-limiting bone marrow suppression usually occurred ([2]; humans, infusion): greater than 20 nM
concentration ([2]; infusion of 0.1-0.5 mg/kg/day, humans, read-out: plasma concentrations of the drug): 10 to 50 nM
tolerability ([2]; infusion, no nausea, vomiting or fever): well tolerated
time for monocyte numbers to return to approximately pre-administration values ([3]; after cessation of the CdA administration): within about two weeks
decrease in number of circulating lymphocytes ([3]; by the end of period of infusion, 0.1 mg/kg per day): 30%
patients whose monocytes disappeared completely from the circulation ([3]; by the seventh treatment day, 0.1 mg/kg per day): four of the eight
mean level of monocyte decrease ([3]; day 7, 0.1 mg/kg per day continuous intravenous infusion, eight patients): 80%
number of circulating neutrophils ([3]; seven days, 0.1 mg/kg per day): no significant decrease
platelet and hemoglobin levels ([3]; seven days, 0.1 mg/kg per day): constant
supernatant IL-6 (IL-6; cytotoxic concentrations of CdA): high levels of IL-6
spontaneous secretion of IL-6 into the culture supernatant (IL-6; sub-toxic concentrations of CdA, three days): inhibited the spontaneous secretion of IL-6
toxicity on the growth of fibroblast cells [4]: no appreciable toxicity
